pIC50, pKd: −log10 of the molar value.
What was measured:
TNFα = TNFα (Homo sapiens (Human), UniProt P01375); assay: TNFα binding assay (time-resolved FRET, biotinylated TNFα); details: 1 nM biotinylated TNFα, 80 nM probe, 16 hr incubation; read-out: TNF-HTRF-biotin
Description: TNFα binding was measured in black 96-well plates using a time-resolved FRET assay using a previously described fluorescence acceptor TNFα probe (Xiao et al J. Med. Chem. 2020). Biotinylated TNFα was purchased from Acro Biosystems. Binding reactions were conducted in 20 mM Hepes (pH 7.5) 10 mM MgCl2 0.015% Tween-20 0.05 mg/ml BSA 2% DMSO with 1 nM TNFα 0.5 nM Streptavidin-Tb and 80 nM probe. Test compounds were resuspended in DMSO and 3-fold serial dilutions were made at 100× final concentrations. Fluorescence was measured using λex=340 nm, λem=490, 520 nm on an SpectraMax M5e plate reader (Molecular Devices) after 16 hr incubation time. Dose responses were conducted in duplicate and normalized to the response with DMSO (high) and 100 nM (R)-3-(1-((3-chloro-7-fluoro-6-(2-(2-hydroxypropan-2-yl)pyrimidin-5-yl)-2-methyl-1,5-naphthyridin-4-yl)amino)ethyl)-4-fluorobenzonitrile (low) on each plate. IC50 values were determined by fitting to 4-parameter curves in GraphPad Prism.

folate receptor beta [1] = target: T1, folate receptor beta (Homo sapiens (Human), UniProt P14207); assay: Folate receptor SPR assay (biotinylated folate receptor beta on streptavidin chip); format: binding; details: for Rmax: biotinylated folate receptor beta on streptavidin chip; for kd / pKd / kon: multi-cycle kinetics, 25° C., 1:1 model; for pKd: read-out: FOLR2Biotin - SPR Kd; for kon: pH 7.5, read-out: ka
T1 sequence (P14207 17-255): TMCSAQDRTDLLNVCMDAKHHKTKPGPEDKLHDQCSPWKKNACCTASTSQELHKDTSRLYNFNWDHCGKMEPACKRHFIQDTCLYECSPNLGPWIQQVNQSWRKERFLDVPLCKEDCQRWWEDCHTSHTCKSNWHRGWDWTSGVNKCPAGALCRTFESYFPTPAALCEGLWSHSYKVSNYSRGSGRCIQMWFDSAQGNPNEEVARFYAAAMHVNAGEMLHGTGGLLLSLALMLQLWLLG
Description: Folate receptor SPR binding assays were conducted on a Biacore 8K instrument (Cytiva) using biotinylated folate receptor beta (Acro Biosystems). Briefly, folate receptor was immobilized at -550 RU on a streptavidin chip (Cytiva) in 10 mM HEPES pH 7.5, 150 mM NaCl, 0.05% Tween 20. Multi-cycle kinetic studies were conducted with 8 compound concentrations using 2-fold dilutions in 10 mM HEPES pH 7.5, 150 mM NaCl, 0.05% Tween 20, 2% DMSO at 25° C. A flow rate or 75 μl/mmn with an association time of 120 s and a dissociation time of 600 s were used. Surfaces were regenerated with 4 M MgCl2 at 30 μl/min for 30 s. Data were fit to a 1:1 model to determine the reported binding parameters.

[2] = target: TNFα and streptavidin immobilized FOL2R (Homo sapiens (Human), UniProt P01375+P14207); assay: Ternary complex SPR assay; format: binding; details: 10 nM compound, max response normalized to expected response; for TC 60 nM taggless TNF normalized: 60 nM untagged TNF; for TC 300 nM- tagless TNF Normalized: 300 nM untagged TNF; for TC 150 nM- tagless TNF Normalized: 150 nM untagged TNF
Sequence of TNFα and streptavidin immobilized FOL2R (P14207 17-230): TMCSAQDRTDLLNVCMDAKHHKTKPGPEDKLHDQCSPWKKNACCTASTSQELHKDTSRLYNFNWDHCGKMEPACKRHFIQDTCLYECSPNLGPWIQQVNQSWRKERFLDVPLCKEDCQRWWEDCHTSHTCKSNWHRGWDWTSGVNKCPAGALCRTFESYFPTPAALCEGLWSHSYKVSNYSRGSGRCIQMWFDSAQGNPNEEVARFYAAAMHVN
Sequence of TNFα and streptavidin immobilized FOL2R (P01375 77-233): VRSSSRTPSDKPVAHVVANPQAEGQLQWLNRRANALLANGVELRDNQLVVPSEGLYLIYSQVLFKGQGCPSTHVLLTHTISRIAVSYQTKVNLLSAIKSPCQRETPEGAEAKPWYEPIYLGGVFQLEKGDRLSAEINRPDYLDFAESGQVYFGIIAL
Description: Folate receptor-TNFα ternary complex SPR assays were conducted on a Biacore 8K instrument (Cytiva) using biotinylated folate receptor beta (Acro Biosystems). Folate receptor was immobilized at -1800 RU on a streptavidin chip (Cytiva) in 10 mM HEPES pH 7.5, 150 mM NaCl, 0.05% Tween 20. Untagged TNF was preincubated with 10 nM compound for 6 hr in 10 mM HEPES pH 7.5, 150 mM NaCl, 0.05 Tween 20, 2% DMSO at 25° C. Samples were then injected over the folate receptor surface at 30 μl/min with an association time of 110 s and a dissociation time of 600 s. Surfaces were regenerated with 4 M MgCl2 at 30 μl/mm for 30 s. The maximum measured response was normalized by comparison to the maximum expected response for each compound.

folate receptor beta [3] = target: T1, folate receptor beta; assay: Folate receptor binding assay (fluorescence polarization); details: 2.5 nM folate receptor beta, 2 nM FR-Cy probe, 2 hr incubation; read-out: FOLR2-FP
Description: Folate receptor binding was measured in black 96-well plates using a fluorescence polarization assay. A fluorescent probe consisting of a folate analog linked to Cy5 (FR-Cy) was custom synthesized.
Test compounds were resuspended in DMSO and 3-fold serial dilutions were made from 300-0.015 μM (100× final concentrations). Binding reactions were conducted in 200 μl final volume in 20 mM Hepes (pH 7.5) 250 mM NaCl 0.0150 Tween-20 1% DMSO with 2.5 nM folate receptor beta (Acro Biosystems) and 2 nM probe. Fluorescence polarization was measured using λex=620 nm, λem=688 nm on an Envision plate reader (Perkin Elmer) after 2 hr incubation time. Dose responses were conducted in duplicate and normalized to the response with DMSO (high) and 1 μM folic acid (low) on each plate. IC50 values were determined by fitting to 4-parameter curves in GraphPad Prism.

Sequence of TNFα (P01375 77-233): as above

In the case of `Cc1nc2cc(F)c(-c3cnc(N4CCN(C(=O)COCCOCCOCCOCCOCCOCCn5cc(CC[C@H](NC(=O)c6ccc(CCc7ccc8nc(N)nc(O)c8c7)cc6)C(=O)O)nn5)CC4)nc3)nc2c(N[C@H](C)c2cc(C#N)ccc2F)c1Cl` [Compound I-82, (S)-2-(4-(2-(2-amino-4-hydroxyquinazolin-6-yl)ethyl)benzamido)-4-(1-(20-(4-(5-(7-chloro-8-(((R)-1-(5-cyano-2-fluorophenyl)ethyl)amino)-3-fluoro-6-methyl-1,5-naphthyridin-2-yl)pyrimidin-2-yl)piperazin-1-yl)-20-oxo-3,6,9,12,15,18-hexaoxaicosyl)-1H-1,2,3-triazol-4-yl)butanoic acid], the pIC50 (TNFα) was 7.72, the Rmax (folate receptor beta [1]) was 14.5 RU and the kd (folate receptor beta [1]) was 0.000591 s⁻¹. The pKd (folate receptor beta [1]) was 10.51, the kon (folate receptor beta [1]) was 1.91e+07 M⁻¹ s⁻¹ and the “TC 60 nM taggless TNF normalized” value [2] was 15.7%. For the same compound, the “TC 300 nM- tagless TNF Normalized” value [2] was 24.9% and the pIC50 (folate receptor beta [3]) was 8.31.
In the case of `Cc1nc2cc(F)c(-c3cnc(N4CCN(C(=O)COCCOCCN5CCC6(CC5)CCN(C(=O)CC[C@H](NC(=O)c5ccc(NCc7cnc8nc(N)nc(O)c8n7)cc5)C(=O)O)CC6)CC4)nc3)nc2c(N[C@H](C)c2cc(C#N)ccc2F)c1Cl` [Compound I-84, (S)-2-(4-(((2-amino-4-hydroxypteridin-6-yl)methyl)amino)benzamido)-5-(9-(2-(2-(2-(4-(5-(7-chloro-8-(((R)-1-(5-cyano-2-fluorophenyl)ethyl)amino)-3-fluoro-6-methyl-1,5-naphthyridin-2-yl)pyrimidin-2-yl)piperazin-1-yl)-2-oxoethoxy)ethoxy)ethyl)-3,9-diazaspiro[5.5]undecan-3-yl)-5-oxopentanoic acid], the pIC50 (TNFα) was 8.05, the Rmax (folate receptor beta [1]) was 19.7 RU and the kd (folate receptor beta [1]) was 0.000153 s⁻¹. For the same compound, the pKd (folate receptor beta [1]) was 11.23, the kon (folate receptor beta [1]) was 2.59e+07 M⁻¹ s⁻¹ and the “TC 60 nM taggless TNF normalized” value [2] was 10.8%. For the same compound, the “TC 150 nM- tagless TNF Normalized” value [2] was 17.4%, the “TC 300 nM- tagless TNF Normalized” value [2] was 17.3% and the pIC50 (folate receptor beta [3]) was 8.16.
`Cc1nc2cc(F)c(-c3cnc(N4CCN(C(=O)COCCOCCOCCOCCOCCOCCn5cc(CC[C@H](NC(=O)c6ccc(N(C)Cc7ccc8nc(N)[nH]c(=O)c8c7)cc6)C(=O)O)nn5)CC4)nc3)nc2c(N[C@H](C)c2cc(C#N)ccc2F)c1Cl` [Compound I-85, (S)-2-(4-(((2-amino-4-oxo-3,4-dihydroquinazolin-6-yl)methyl)(methyl)amino)benzamido)-4-(1-(20-(4-(5-(7-chloro-8-(((R)-1-(5-cyano-2-fluorophenyl)ethyl)amino)-3-fluoro-6-methyl-1,5-naphthyridin-2-yl)pyrimidin-2-yl)piperazin-1-yl)-20-oxo-3,6,9,12,15,18-hexaoxaicosyl)-1H-1,2,3-triazol-4-yl)butanoic acid] showed a pIC50 (TNFα) of 7.89, an Rmax (folate receptor beta [1]) of 11.9 RU and a kd (folate receptor beta [1]) of 0.00112 s⁻¹. The pKd (folate receptor beta [1]) was 10.06, the kon (folate receptor beta [1]) was 1.27e+07 M⁻¹ s⁻¹ and the “TC 60 nM taggless TNF normalized” value [2] was 9.7%. The “TC 300 nM- tagless TNF Normalized” value [2] was 15.1% and the pIC50 (folate receptor beta [3]) was 7.92.
With `Cc1nc2cc(F)c(-c3cnc(N4CCN(C(=O)COCCOCCOCCOCCOCCOCCn5cc(CC[C@H](NC(=O)c6ccc(N(C)Cc7cnc8nc(N)[nH]c(=O)c8n7)cc6)C(=O)O)nn5)CC4)nc3)nc2c(N[C@H](C)c2cc(C#N)ccc2F)c1Cl` [Compound I-86, (S)-2-(4-(((2-amino-4-oxo-3,4-dihydropteridin-6-yl)methyl)(methyl)amino)benzamido)-4-(1-(20-(4-(5-(7-chloro-8-(((R)-1-(5-cyano-2-fluorophenyl)ethyl)amino)-3-fluoro-6-methyl-1,5-naphthyridin-2-yl)pyrimidin-2-yl)piperazin-1-yl)-20-oxo-3,6,9,12,15,18-hexaoxaicosyl)-1H-1,2,3-triazol-4-yl)butanoic acid] the pIC50 (TNFα) was 7.77, the Rmax (folate receptor beta [1]) was 18.1 RU and the kd (folate receptor beta [1]) was 0.000344 s⁻¹. For the same compound, the pKd (folate receptor beta [1]) was 10.64, the kon (folate receptor beta [1]) was 1.53e+07 M⁻¹ s⁻¹ and the “TC 150 nM- tagless TNF Normalized” value [2] was 20.1%. The “TC 300 nM- tagless TNF Normalized” value [2] was 22.8% and the pIC50 (folate receptor beta [3]) was 8.11.
In the case of `Cc1nc2cc(F)c(-c3cnc(N4CCN(C(=O)COCCOCCOCCOCCOCCn5cc(CC[C@H](NC(=O)c6ccc(NCc7cnc8nc(N)nc(O)c8n7)cc6)C(=O)O)nn5)CC4)nc3)nc2c(N[C@H](C)c2cc(C#N)ccc2F)c1Cl` [Compound I-89, (S)-2-(4-(((2-amino-4-hydroxypteridin-6-yl)methyl)amino)benzamido)-4-(1-(17-(4-(5-(7-chloro-8-(((R)-1-(5-cyano-2-fluorophenyl)ethyl)amino)-3-fluoro-6-methyl-1,5-naphthyridin-2-yl)pyrimidin-2-yl)piperazin-1-yl)-17-oxo-3,6,9,12,15-pentaoxaheptadecyl)-1H-1,2,3-triazol-4-yl)butanoic acid], the pIC50 (TNFα) was 7.38, the Rmax (folate receptor beta [1]) was 31.1 RU and the kd (folate receptor beta [1]) was 0.000337 s⁻¹. The pKd (folate receptor beta [1]) was 9.65, the kon (folate receptor beta [1]) was 1.51e+06 M⁻¹ s⁻¹ and the “TC 60 nM taggless TNF normalized” value [2] was 11.6%. The “TC 300 nM- tagless TNF Normalized” value [2] was 15% and the pIC50 (folate receptor beta [3]) was 8.08.
Compound `Cc1nc2cc(F)c(-c3cnc(N4CCN(C(=O)COCCn5cc(CCCN6CCC7(CC6)CCN(C(=O)CC[C@H](NC(=O)c6ccc(NCc8cnc9nc(N)nc(O)c9n8)cc6)C(=O)O)CC7)nn5)CC4)nc3)nc2c(N[C@H](C)c2cc(C#N)ccc2F)c1Cl` [Compound I-90, (S)-2-(4-(((2-amino-4-hydroxypteridin-6-yl)methyl)amino)benzamido)-5-(9-(3-(1-(2-(2-(4-(5-(7-chloro-8-(((R)-1-(5-cyano-2-fluorophenyl)ethyl)amino)-3-fluoro-6-methyl-1,5-naphthyridin-2-yl)pyrimidin-2-yl)piperazin-1-yl)-2-oxoethoxy)ethyl)-1H-1,2,3-triazol-4-yl)propyl)-3,9-diazaspiro[5.5]undecan-3-yl)-5-oxopentanoic acid] has a pIC50 (TNFα) of 8.12, an Rmax (folate receptor beta [1]) of 13.3 RU and a kd (folate receptor beta [1]) of 0.00013 s⁻¹. The pKd (folate receptor beta [1]) was 11.30, the kon (folate receptor beta [1]) was 2.62e+07 M⁻¹ s⁻¹ and the “TC 150 nM- tagless TNF Normalized” value [2] was 20.4%. The “TC 300 nM- tagless TNF Normalized” value [2] was 20.6% and the pIC50 (folate receptor beta [3]) was 8.36.
`Cc1nc2cc(F)c(-c3cnc(N4CCN(C(=O)COCCn5cc(CN(CCO)CCOCCOCCOCCNC(=O)CC[C@H](NC(=O)c6ccc(NCc7cnc8nc(N)nc(O)c8n7)cc6)C(=O)O)nn5)CC4)nc3)nc2c(N[C@H](C)c2cc(C#N)ccc2F)c1Cl` [Compound I-93, (S)-19-(4-(((2-amino-4-hydroxypteridin-6-yl)methyl)amino)benzamido)-3-((1-(2-(2-(4-(5-(7-chloro-8-(((R)-1-(5-cyano-2-fluorophenyl)ethyl)amino)-3-fluoro-6-methyl-1,5-naphthyridin-2-yl)pyrimidin-2-yl)piperazin-1-yl)-2-oxoethoxy)ethyl)-1H-1,2,3-triazol-4-yl)methyl)-1-hydroxy-16-oxo-6,9,12-trioxa-3,15-diazaicosan-20-oic acid] gave a pIC50 (TNFα) of 7.74, an Rmax (folate receptor beta [1]) of 17.7 RU and a kd (folate receptor beta [1]) of 0.000178 s⁻¹. The pKd (folate receptor beta [1]) was 10.96, the kon (folate receptor beta [1]) was 1.63e+07 M⁻¹ s⁻¹ and the “TC 150 nM- tagless TNF Normalized” value [2] was 16.1%. The “TC 300 nM- tagless TNF Normalized” value [2] was 18.2% and the pIC50 (folate receptor beta [3]) was 8.18.
